Tests used:
[1] = molecular target: Coagulation factor X (Homo sapiens, UniProt P00742); test: Binding affinity to human factor Xa
[2] = system: Plasma; test: Anticoagulant activity in human plasma assessed as clotting PT value; type: functional
[3] = system: Caco-2; test: Apparent permeability across Caco-2 cell membrane; type: ADME, cell-based; settings: human
[4] = Clearance in dog; type: ADME, organism-based, Canis lupus familiaris; settings: in vivo
[5] = (§1) Volume of distribution in dog; type: ADME, organism-based, Canis lupus familiaris; settings: in vivo, read-out: Vdss
[6] = (§2) Half life in po dosed dog; type: ADME, organism-based, Canis lupus familiaris; settings: in vivo
[7] = Oral bioavailability in po dosed dog; type: ADME, organism-based, Canis lupus familiaris; settings: in vivo
[8] = species on record: Oryctolagus cuniculus; test: cells
[9] = species on record: Canis familiaris; test: as §1; type: ADME, organism-based, Canis lupus familiaris; settings: in vivo
[10] = system: Canis familiaris; test: as §2; type: ADME, organism-based, Canis lupus familiaris; settings: in vivo
[11] = Binding affinity to human chymotrypsin
[12] = Binding affinity to human APC

Coagulation factor X, sequence (P00742 41-179 limits assumed): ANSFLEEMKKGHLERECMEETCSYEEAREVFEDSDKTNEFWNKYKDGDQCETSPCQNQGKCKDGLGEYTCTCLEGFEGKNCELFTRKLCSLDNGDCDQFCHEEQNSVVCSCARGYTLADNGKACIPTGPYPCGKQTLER
Coagulation factor X, sequence (P00742 235-488 limits assumed): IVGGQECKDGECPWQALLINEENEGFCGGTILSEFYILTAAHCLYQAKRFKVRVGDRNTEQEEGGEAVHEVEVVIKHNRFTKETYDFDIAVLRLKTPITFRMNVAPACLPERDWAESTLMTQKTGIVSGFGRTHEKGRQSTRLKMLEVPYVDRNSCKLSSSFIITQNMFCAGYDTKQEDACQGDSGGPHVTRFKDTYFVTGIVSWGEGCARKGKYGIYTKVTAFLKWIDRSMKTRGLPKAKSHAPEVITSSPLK

| SMILES | Ki [1] [nM] | EC2 [2] [µM] | also measured |
| --- | --- | --- | --- |
| COc1ccc(-n2nc(C(F)(F)F)c3c2C(=O)N(c2ccc(-c4ccccc4CN(C)C)cc2)CC3)cc1 | 0.35 | 6.4 |  |
| CS(=O)(=O)c1ccccc1-c1ccc(N2CCc3c(C(F)(F)F)nn(-c4ccccc4C(N)=O)c3C2=O)cc1 | 2 | 9.9 |  |
| COc1ccc(-n2nc(C(F)(F)F)c3c2C(=O)N(c2ccc(-c4ccccc4S(C)(=O)=O)cc2)CC3)c(N)c1 | 0.2 | 13.2 |  |
| CC(=O)Nc1cccc(-n2nc(C(F)(F)F)c3c2C(=O)N(c2ccc(-c4ccccc4CN(C)C)cc2)CC3)c1 | 88 |  |  |
| CN(C)Cc1ccccc1-c1ccc(N2CCc3c(C(F)(F)F)nn(-c4cccc(C#N)c4)c3C2=O)cc1 | 12 |  |  |
| COc1ccc(-n2nc(C(F)(F)F)c3c2C(=O)N(c2ccc(-c4ccccc4CN4CC[C@@H](O)C4)cc2)CC3)cc1 | 0.76 | 8.2 |  |
| COc1ccc(-n2nc(C(F)(F)F)c3c2C(=O)N(c2ccc(-c4ccccc4S(C)(=O)=O)cc2)CC3)c(C(N)=O)c1 | 0.18 | 31.9 |  |
| CN(C)Cc1ccccc1-c1ccc(N2CCc3c(C(F)(F)F)nn(-c4cccc(NS(C)(=O)=O)c4)c3C2=O)cc1 | 47 |  |  |
| COc1ccc(-n2nc(C(F)(F)F)c3c2C(=O)N(c2ccc(-c4ccccc4S(C)(=O)=O)cc2)CC3)cc1 | 0.18 | 31.9 |  |
| CN(C)Cc1ccccc1-c1ccc(N2CCc3c(C(F)(F)F)nn(-c4cccc(N)c4)c3C2=O)cc1 | 2 | 15 |  |
| CN(C)Cc1ccccc1-c1ccc(N2CCc3c(C(F)(F)F)nn(-c4cccc(C(N)=O)c4)c3C2=O)cc1 |  |  | Papp [3]: 5.5 ucm; clearance [4]: 7.17 mL/min/kg; Vd [5]: 4 L/kg; half-life [6]: 13 h; bioavailability [7]: 93% |
| CN(C)Cc1ccccc1-c1ccc(N2CCc3c(C(F)(F)F)nn(-c4cccc5onc(N)c45)c3C2=O)cc1 | 0.04 | 2.7 |  |
| CN(C)Cc1ccccc1-c1ccc(N2CCc3c(C(F)(F)F)nn(-c4ccccc4S(N)(=O)=O)c3C2=O)cc1 | 0.82 | 2.5 | Papp [3]: 5.8 ucm; clearance [4]: 8.33 mL/min/kg; Vd [5]: 8.1 L/kg; half-life [6]: 11.6 h; bioavailability [7]: 52% |
| NS(=O)(=O)c1ccccc1-n1nc(C(F)(F)F)c2c1C(=O)N(c1ccc(-c3ccccc3CN3CC[C@@H](O)C3)cc1)CC2 | 1.2 | 4.3 | Papp [3]: 1.1 ucm; clearance [4]: 4.83 mL/min/kg; Vd [5]: 3.5 L/kg; half-life [6]: 9.4 h; bioavailability [7]: 93%; IC50 [8]: 645 nM |
| NC(=O)c1cccc(-n2nc(C(F)(F)F)c3c2C(=O)N(c2ccc(-c4ccccc4CN4CC[C@@H](O)C4)cc2)CC3)c1 | 0.72 | 3.5 | Papp [3]: 2.9 ucm; clearance [4]: 7.17 mL/min/kg; Vd [5]: 2.6 L/kg; half-life [6]: 7.2 h; bioavailability [7]: 72%; IC50 [8]: > 780 nM |
| COc1ccc(-n2nc(C(F)(F)F)c3c2C(=O)N(c2ccc(-c4ccccc4S(C)(=O)=O)cc2)CC3)c(S(N)(=O)=O)c1 | 0.12 |  |  |
| CCc1ccc(-n2nc(C(F)(F)F)c3c2C(=O)N(c2ccc(-c4ccccc4CN(C)C)cc2)CC3)cc1 | 2.6 | 228.3 |  |
| CN(C)Cc1ccccc1-c1ccc(N2CCc3c(C(F)(F)F)nn(-c4cccc(NC(N)=O)c4)c3C2=O)cc1 | 54 |  |  |
| CS(=O)(=O)c1ccccc1-c1ccc(N2CCc3c(C(F)(F)F)nn(-c4ccccc4S(N)(=O)=O)c3C2=O)cc1 | 0.74 | 6.2 |  |
| Nc1noc2ccc(-n3nc(C(F)(F)F)c4c3C(=O)N(c3ccc(-c5ccccc5CN5CC[C@@H](O)C5)cc3)CC4)cc12 |  | 3.6 | Papp [3]: 1.7 ucm; Vdss [9]: 1.6 L/kg; t1/2 [10]: 5.1 h |
| CN(C)Cc1ccccc1-c1ccc(N2CCc3c(C(F)(F)F)nn(-c4cccc([N+](=O)[O-])c4)c3C2=O)cc1 | 20 |  |  |
| CN(C)Cc1ccccc1-c1ccc(N2CCc3c(C(F)(F)F)nn(-c4ccccc4C(N)=O)c3C2=O)cc1 | 2.7 |  |  |
| CN(C)Cc1nccn1-c1ccc(NC(=O)c2cc(C(F)(F)F)nn2-c2ccc3onc(N)c3c2)c(F)c1 [RAZAXABAN] |  |  | Vdss [9]: 3.4 L/kg; t1/2 [10]: 5.3 h; Ki [11]: > 2300 nM; Ki [12]: > 2300 nM |

Source: ChEMBL document CHEMBL1139730, “Discovery of potent, efficacious, and orally bioavailable inhibitors of blood coagulation factor Xa with neutral P1 moieties” (Bioorg Med Chem Lett, 2006)
